The source made the active and inactive calls. No rule for the calls is given here.
What was measured:
[1] = system: VeroE6 cell viability, cytotoxicity CC50; assay: VeroE6 cell cytotoxicity, dose response, cytotoxicity control for flavivirus guanylyltransferase probe project (AID 623864)
[2] = as above; settings: VeroE6 cell viability, cytotoxicity CC50; at 50 µM (top of the series)

Row | Structure (SMILES) | CC50 [1] [µM] | viability [2]
1 | O=S(=O)(Nc1cc(Cl)c(O)c2ccccc12)c1ccc(F)cc1 | 29.4 | 
2 | O=S(=O)(Nc1cc(SCc2ccccc2)c(O)c2ccccc12)c1ccc(Cl)cc1 | 32.3 | 
3 | O=[N+]([O-])c1cccc(S(=O)(=O)Nc2cc(Sc3nc4ccccc4s3)c(O)c3ccccc23)c1 | 7.37 | 
4 | Cc1cc(C)c(S(=O)(=O)Nc2cc(SCC(=O)O)c(O)c3ccccc23)c(C)c1 | 12.6 | 
5 | O=C(O)CSc1cc(NS(=O)(=O)c2ccc(Br)cc2)c2ccccc2c1O | 21.6 | 
6 | Cc1ccc(S(=O)(=O)Nc2cc(SCC(=O)O)c(O)c3ccccc23)cc1 | 27.6 | 
7 | Cc1ccc(S(=O)(=O)Nc2cc(Sc3nc(C)cc(C)n3)c(O)c3ccccc23)cc1 | 12.8 | 
8 | Cc1cc(F)ccc1S(=O)(=O)Nc1cc(SCC(=O)O)c(O)c2ccccc12 | 21.6 | 
9 | O=C(O)CSc1cc(NS(=O)(=O)c2ccc(F)cc2)c2ccccc2c1O | 20 | 
10 | O=C(O)CSc1cc(NS(=O)(=O)c2cccc([N+](=O)[O-])c2)c2ccccc2c1O | 30.9 | 
11 | O=S(=O)(Nc1cc(Sc2ncn[nH]2)c(O)c2ccccc12)c1ccc(F)cc1 | 31.7 | 
12 | Cn1c(=O)c2[nH]c(-c3ccc(Cl)cc3)c(O)c2n(C)c1=O |  | 72.3% (inactive)
13 | O=[N+]([O-])c1cccc(S(=O)(=O)Nc2cc(SCc3ccccc3)c(O)c3ccccc23)c1 | 14.4 | 
14 | COc1ccc(OC)c(S(=O)(=O)Nc2cc(SCC(=O)O)c(O)c3ccccc23)c1 | 29.7 | 
15 | O=C(O)CSc1cc(NS(=O)(=O)c2cccc3cccnc23)c2ccccc2c1O | 19.2 | 
16 | O=C(O)CSc1cc(NS(=O)(=O)c2ccc(Cl)cc2)c2ccccc2c1O | 30.8 | 

Source: PubChem BioAssay AID623864 (Southern Research Specialized Biocontainment Screening …, 2012)
